From patent US20080194617A1, “Fused ring compound” (priority 2007, published 2008)

Target: T1, PPARγ-RXRα heterodimer (Homo sapiens, UniProt P37231)
T1 construct: expressed in transfected cells; host or cells: CHO-K1 (PPARγ:RXRα:4ERPP/CHO-K1)
T1 sequence (P37231 1-505): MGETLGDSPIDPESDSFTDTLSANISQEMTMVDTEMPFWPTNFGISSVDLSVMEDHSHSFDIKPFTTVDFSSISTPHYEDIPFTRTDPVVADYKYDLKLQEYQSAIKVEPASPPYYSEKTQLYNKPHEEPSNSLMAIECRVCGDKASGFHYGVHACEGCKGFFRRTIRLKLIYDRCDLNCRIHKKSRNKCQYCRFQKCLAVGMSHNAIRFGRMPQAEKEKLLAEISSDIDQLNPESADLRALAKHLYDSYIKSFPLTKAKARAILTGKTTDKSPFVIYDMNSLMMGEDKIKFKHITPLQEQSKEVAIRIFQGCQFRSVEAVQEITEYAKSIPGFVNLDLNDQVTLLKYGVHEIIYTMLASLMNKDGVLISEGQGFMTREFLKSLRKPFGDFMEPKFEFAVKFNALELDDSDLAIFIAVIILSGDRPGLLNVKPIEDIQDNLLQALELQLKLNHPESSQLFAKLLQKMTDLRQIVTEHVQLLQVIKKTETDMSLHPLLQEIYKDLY
T1 sequence (P19793 1-462 partner): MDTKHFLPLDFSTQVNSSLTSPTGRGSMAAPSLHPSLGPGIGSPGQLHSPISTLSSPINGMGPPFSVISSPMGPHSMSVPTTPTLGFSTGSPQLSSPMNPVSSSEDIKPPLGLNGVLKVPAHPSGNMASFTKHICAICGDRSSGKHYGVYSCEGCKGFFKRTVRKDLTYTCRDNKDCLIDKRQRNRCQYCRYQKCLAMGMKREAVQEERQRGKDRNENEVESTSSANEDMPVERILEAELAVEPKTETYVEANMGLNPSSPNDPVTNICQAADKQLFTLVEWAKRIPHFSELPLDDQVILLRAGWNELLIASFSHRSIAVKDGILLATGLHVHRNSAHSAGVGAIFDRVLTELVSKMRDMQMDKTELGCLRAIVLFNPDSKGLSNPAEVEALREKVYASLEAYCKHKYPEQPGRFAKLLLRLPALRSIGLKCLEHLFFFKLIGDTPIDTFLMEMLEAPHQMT
Assay: PPARγ-RXRα heterodimer ligand activity (luciferase reporter assay in PPARγ:RXRα:4ERPP/CHO-K1 cells)
Assay type: cell-based
Conditions: incubated one day with test compound, luciferase induction rate, compound concentration showing 50% of the maximum value of induction rate
Experimental: The PPARγ:RXRα:4ERPP/CHO-K1 cells described in WO03/099793 were cultured in a Ham F12 medium [manufactured by Life Technologies, Inc., US] containing 10% calf fetal serum [manufactured by Life Technologies, Inc., US], sown in a 96-well white plate [manufactured by Corning Coster Corporation, US] at 1×10^4 cells/well, and incubated overnight in a carbon dioxide gas incubator at 37° C.
Then, the medium was removed from the 96 well white plate, 45 μl of Ham F12 medium containing 0.1% fatty acid-free bovine serum albumin (BSA) and a test compound (5 μl) were added, and the cells were incubated for one day in a carbon dioxide gas incubator at 37° C. The medium was removed, 20 μl of PicaGene 7.5 (manufactured by Wako Pure Chemical Industries, Ltd.) 2-fold diluted with HBSS (HANKS' BALANCED SALT SOLUTION) [manufactured by BIO WHITTAKER, US] was added. After stirring, the luciferase activity was determined using the 1420 ARVO Multilabel Counter [manufactured by PerkinElmer, US].
The induction rate was calculated from the luciferase activity of each test compound based on the luciferase activity of the test compound non-administration group as 1. The test compound concentration and the induction rate were analyzed by PRISM [manufactured by GraphPad Software, Inc., US] to calculate EC50 value (compound concentration showing 50% of the maximum value of induction rate) of the test compound.

| Structure (SMILES) | EC50 [nM] |
| --- | --- |
| Cc1ccc(S(=O)(=O)NC(=O)/C=C/c2c(C)nn(C)c2-n2ccc3cccnc32)cc1 [Example 33, (2E)-3-[1,3-dimethyl-5-(1H-pyrrolo[2,3-b]pyridin-1-yl)-1H-pyrazol-4-yl]-N-[(4-methylphenyl)sulfonyl]acrylamide] | 88 |
| CCCCCS(=O)(=O)NC(=O)/C=C/c1c(C)nn(C)c1-n1ccc2cccnc21 [Example 9, (2E)-3-[1,3-dimethyl-5-(1H-pyrrolo[2,3-b]pyridin-1-yl)-1H-pyrazol-4-yl]-N-(pentylsulfonyl)acrylamide] | 64 |
| Cc1nn(C)c(-n2ccc3cc(Cl)ccc32)c1CCS(=O)(=O)NC(=O)OCC1CC1 [Example 189, cyclopropylmethyl ({2-[5-(5-chloro-1H-indol-1-yl)-1,3-dimethyl-1H-pyrazol-4-yl]ethyl}sulfonyl)carbamate] | 54 |
| CCCCCS(=O)(=O)NC(=O)OCCc1c(C)nn(C)c1-n1ccc2cc(Cl)ccc21 [Example 66, 2-[5-(5-chloro-1H-indol-1-yl)-1,3-dimethyl-1H-pyrazol-4-yl]ethyl (pentylsulfonyl)carbamate] | 22 |
| CCCCCS(=O)(=O)NC(=O)CCc1c(C)nn(C)c1N1CCc2cccnc21 [Example 40, 3-[5-(2,3-dihydro-1H-pyrrolo[2,3-b]pyridin-1-yl)-1,3-dimethyl-1H-pyrazol-4-yl]-N-(pentylsulfonyl)propanamide] | 12 |
| Cc1nn(C)c(-n2ccc3cc(Cl)ccc32)c1/C=C/C(=O)NS(=O)(=O)c1ccco1 [Example 55, (2E)-3-[5-(5-chloro-1H-indol-1-yl)-1,3-dimethyl-1H-pyrazol-4-yl]-N-(2-furylsulfonyl)acrylamide] | 44 |
| CCCCNC(=O)NS(=O)(=O)CCc1c(C)nn(C)c1-n1ccc2cc(C(F)(F)F)cnc21 [Example 294, N-[(butylamino)carbonyl]-2-{1,3-dimethyl-5-[5-(trifluoromethyl)-1H-pyrrolo[2,3-b]pyridin-1-yl]-1H-pyrazol-4-yl}ethanesulfonamide] | 32 |
| CCCCCS(=O)(=O)NC(=O)/C=C/c1c(C)nn(C)c1-n1ccc2ccc(C(F)(F)F)cc21 [Example 31, potassium ((2E)-3-{1,3-dimethyl-5-[6-(trifluoromethyl)-1H-indol-1-yl]-1H-pyrazol-4-yl}prop-2-enoyl)(pentylsulfonyl)azanide] | 5.5 |
| CCCCCS(=O)(=O)NC(=O)/C=C/c1c(C)nn(C)c1-n1ccc2cc(Cl)ccc21 [Example 27, (2E)-3-[5-(5-chloro-1H-indol-1-yl)-1,3-dimethyl-1H-pyrazol-4-yl]-N-(pentylsulfonyl)acrylamide] | 6.1 |
| CCCCCS(=O)(=O)NC(=O)NCCCc1c(C)nn(C)c1-n1ccc2cc(Cl)ccc21 [Example 82, N-[({3-[5-(5-chloro-1H-indol-1-yl)-1,3-dimethyl-1H-pyrazol-4-yl]propyl}amino)carbonyl]pentane-1-sulfonamide] | 67 |
| CCCCCS(=O)(=O)NC(=O)/C=C/c1c(C)nn(C)c1-n1ccc2cc(C)cnc21 [Example 232, (2E)-3-[1,3-dimethyl-5-(5-methyl-1H-pyrrolo[2,3-b]pyridin-1-yl)-1H-pyrazol-4-yl]-N-(pentylsulfonyl)acrylamide] | 15 |
| CCCCOC(=O)NS(=O)(=O)CCc1c(C)nn(C)c1-n1ccc2cc(C(F)(F)F)cnc21 [Example 295, butyl [(2-{1,3-dimethyl-5-[5-(trifluoromethyl)-1H-pyrrolo[2,3-b]pyridin-1-yl]-1H-pyrazol-4-yl}ethyl)sulfonyl]carbamate] | 22 |
| CCCCNS(=O)(=O)NC(=O)/C=C/c1c(C)nn(C)c1-n1ccc2cc(Cl)ccc21 [Example 99, (2E)-N-[(butylamino)sulfonyl]-3-[5-(5-chloro-1H-indol-1-yl)-1,3-dimethyl-1H-pyrazol-4-yl]acrylamide] | 24 |
| CCCCCNS(=O)(=O)NC(=O)/C=C/c1c(C)nn(C)c1-n1ccc2cc(Cl)ccc21 [Example 62, (2E)-3-[5-(5-chloro-1H-indol-1-yl)-1,3-dimethyl-1H-pyrazol-4-yl]-N-[(pentylamino)sulfonyl]acrylamide] | 37 |
| CCCCNC(=O)NS(=O)(=O)CCc1c(C2CC2)nn(C)c1-n1ccc2cc(Cl)cnc21 [Example 279, N-[(butylamino)carbonyl]-2-[5-(5-chloro-1H-pyrrolo[2,3-b]pyridin-1-yl)-3-cyclopropyl-1-methyl-1H-pyrazol-4-yl]ethanesulfonamide] | 60 |
| CCCCCS(=O)(=O)NC(=O)/C=C/c1c(C)nn(C)c1-c1csc2ccccc12 [Example 6, (2E)-3-[5-(1-benzothien-3-yl)-1,3-dimethyl-1H-pyrazol-4-yl]-N-(pentylsulfonyl)acrylamide] | 19 |
| CCCCS(=O)(=O)NC(=O)/C=C/c1c(C)nn(C)c1-n1ccc2cc(Cl)cnc21 [Example 283, (2E)-N-(butylsulfonyl)-3-[5-(5-chloro-1H-pyrrolo[2,3-b]pyridin-1-yl)-1,3-dimethyl-1H-pyrazol-4-yl]acrylamide] | 14 |
| CCCCCS(=O)(=O)NC(=O)/C=C/c1c(C)nn(C)c1-c1cccc2cccnc12 [Example 24, (2E)-3-[1,3-dimethyl-5-(quinolin-8-yl)-1H-pyrazol-4-yl]-N-(pentylsulfonyl)acrylamide] | 54 |
| CCCCCS(=O)(=O)NC(=O)/C=C/c1c(C)nn(C)c1-n1ccc2ccccc21 [Example 7, potassium {(2E)-3-[5-(1H-indol-1-yl)-1,3-dimethyl-1H-pyrazol-4-yl]prop-2-enoyl}(pentylsulfonyl)azanide] | 39 |
| CCCCOC(=O)NS(=O)(=O)CCc1c(C(F)(F)F)nn(C)c1-n1ccc2cc(Cl)cnc21 [Example 197, butyl ({2-[5-(5-chloro-1H-pyrrolo[2,3-b]pyridin-1-yl)-1-methyl-3-(trifluoromethyl)-1H-pyrazol-4-yl]ethyl}sulfonyl)carbamate] | 86 |
| Cc1nn(C)c(-n2ccc3cc(Cl)cnc32)c1/C=C/C(=O)NS(=O)(=O)NCC1CC1 [Example 264, (2E)-3-[5-(5-chloro-1H-pyrrolo[2,3-b]pyridin-1-yl)-1,3-dimethyl-1H-pyrazol-4-yl]-N-{[(cyclopropylmethyl)amino]sulfonyl}acrylamide] | 26 |
| Cc1nn(C)c(-n2ccc3cc(Cl)ccc32)c1/C=C1\SC(=O)NC1=O [Example 84, (5Z)-5-{[5-(5-chloro-1H-indol-1-yl)-1,3-dimethyl-1H-pyrazol-4-yl]methylene}-1,3-thiazolidine-2,4-dione] | 220 |
